Results taken from US9656981B2, “Peripherally-acting cannabinoid receptor agonists for chronic pain” (The Regents of the University of California, priority 2012, dated 2017).
“Also recorded” adds a separate entry of the source.

Key:
rats = assay: Rotarod test of the tetrad; type: in vivo, rat
Procedure: Rats were tested for motor function and the ataxic effects of novel drugs as described previously^151-153. To determine drug effects on motor coordination, rats are trained 72 h before the test (3 sessions 24 h apart) to remain for at least 180 s on a rotarod revolving at an acceleration of 4-40 revs over 5 min). Rats are tested immediately before vehicle or drug injections and tested again at 2, 6, 24 and 48 hrs after injection. The time for which the rats are able to remain on the rotarod is recorded up to a cut-off of 5 min.

[1] = S9 fraction stability assay; type: in vitro ADME; conditions: 30 min; rat liver S9, 10 μM
Procedure: Compounds are incubated at 10 μM in rat (male Sprague Dawley) liver S9 at 37° C. Each compound is prepared in ethanol at a concentration of 1 mM. An assay mixture containing S9 (1 mg protein/mL final concentration) and an NADPH regenerating system (NADP [1 mM final], glucose 6-phosphate [5 mM final] and glucose 6-phosphate dehydrogenase [1 U/mL final]) in a buffer consisting of 50 mM KPO4 phosphate buffer, pH 7.4 with 3 mM MgCl2 is prepared and preincubated at 37° C. for 5 min. A 10 μL volume of the 1 mM solution is added to 990 μL of assay mixture in a glass test tube @ 37° C. to initiate the assay. Samples (50 μL) are removed at 0, 15, 30, 60 and 120 min and immediately extracted with 3 volumes (150 μL) of methanol, centrifuged to pellet protein and supernatants transferred to LC/MS vials for analysis.

Q: For `CCCc1ccc(/C=C2\C=C(CCN3CCOCC3)c3ccccc32)c2ccccc12` [Compound 9, 4-{2-[(1E)-1-[(4-propylnaphthalen-1-yl)methylidene]-1H-inden-3-yl]ethyl} morpholine], which “effect in the rotarod assay” value (rats; 0.3 mg/kg, intraperitoneal, listed as 13339-145-35) is on record?
A: Its value is “no effect; also recorded: complete lack of effects”.

Q: And the “Rotarod % change from pre-drug (0.3 mg/kg) at 2-3 hr” value (rats; 2-3 hr)?
A: Its value is 0%.

Q: And the “S9% remaining @ xy min” value [1]?
A: The value was 39%.
